Data as given in patent US11572590B2, “Methods for evaluating tumor cell spheroids using 3D microfluidic cell culture device” (Dana-Farber Cancer Institute, Inc., priority 2017, dated 2023).
Like-named read-outs stand apart in the source and are kept apart here.

Tests used:
Experiment in all cases: SelectScreen Kinase Profiling, single point inhibition and IC50 for off-target kinases
Type in all cases: biochemical
off-target kinases [1] = molecular target: off-target kinases (Homo sapiens, UniProt O96017); settings: CHEK2 (CHK2), ZLYTE, ATP Km app
off-target kinases [2] = molecular target: off-target kinases (Homo sapiens, UniProt P08581, D1228H); settings: MET D1228H, LanthaScreen Binding
off-target kinases [3] = molecular target: off-target kinases (Homo sapiens, UniProt P09769); settings: FGR, ATP Km app, ZLYTE
off-target kinases [4] = molecular target: off-target kinases (Homo sapiens, UniProt P19525); settings: EIF2AK2 (PKR), LanthaScreen Binding
off-target kinases [5] = molecular target: off-target kinases (Homo sapiens, UniProt P53355); settings: DAPK1, ATP Km app, Adapta
off-target kinases [6] = molecular target: off-target kinases (Homo sapiens, UniProt Q07912); settings: TNK2 (ACK), LanthaScreen Binding
off-target kinases [7] = molecular target: T1, off-target kinases (Homo sapiens, UniProt Q16832); settings: DDR2, LanthaScreen Binding
T1 sequence (Q16832 22-855): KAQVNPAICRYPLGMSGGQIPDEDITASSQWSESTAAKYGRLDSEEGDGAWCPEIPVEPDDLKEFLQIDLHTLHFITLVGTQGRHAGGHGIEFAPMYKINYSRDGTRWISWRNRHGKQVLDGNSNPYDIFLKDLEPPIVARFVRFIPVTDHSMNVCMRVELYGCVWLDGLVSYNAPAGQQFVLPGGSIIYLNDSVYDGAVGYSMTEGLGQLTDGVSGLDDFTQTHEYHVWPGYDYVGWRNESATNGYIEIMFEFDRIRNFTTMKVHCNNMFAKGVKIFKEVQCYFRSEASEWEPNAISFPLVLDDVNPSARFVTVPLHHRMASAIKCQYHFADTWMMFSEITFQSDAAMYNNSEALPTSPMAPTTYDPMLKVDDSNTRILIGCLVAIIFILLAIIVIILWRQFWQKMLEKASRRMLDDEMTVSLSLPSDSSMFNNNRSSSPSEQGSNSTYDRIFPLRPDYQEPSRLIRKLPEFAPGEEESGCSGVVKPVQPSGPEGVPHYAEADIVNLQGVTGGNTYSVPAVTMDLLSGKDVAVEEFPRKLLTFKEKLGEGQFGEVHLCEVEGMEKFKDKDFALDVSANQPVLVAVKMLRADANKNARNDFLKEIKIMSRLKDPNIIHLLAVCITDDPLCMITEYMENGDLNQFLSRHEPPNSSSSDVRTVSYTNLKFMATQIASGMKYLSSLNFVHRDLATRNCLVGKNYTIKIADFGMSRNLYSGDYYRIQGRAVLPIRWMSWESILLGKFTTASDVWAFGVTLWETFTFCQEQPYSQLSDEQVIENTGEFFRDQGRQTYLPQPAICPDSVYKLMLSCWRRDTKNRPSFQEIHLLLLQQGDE

off-target kinases [8] = molecular target: off-target kinases (Homo sapiens, UniProt Q86UX6)
off-target kinases (Homo sapiens, UniProt Q86UX6), sequence (Q86UX6 whole entry): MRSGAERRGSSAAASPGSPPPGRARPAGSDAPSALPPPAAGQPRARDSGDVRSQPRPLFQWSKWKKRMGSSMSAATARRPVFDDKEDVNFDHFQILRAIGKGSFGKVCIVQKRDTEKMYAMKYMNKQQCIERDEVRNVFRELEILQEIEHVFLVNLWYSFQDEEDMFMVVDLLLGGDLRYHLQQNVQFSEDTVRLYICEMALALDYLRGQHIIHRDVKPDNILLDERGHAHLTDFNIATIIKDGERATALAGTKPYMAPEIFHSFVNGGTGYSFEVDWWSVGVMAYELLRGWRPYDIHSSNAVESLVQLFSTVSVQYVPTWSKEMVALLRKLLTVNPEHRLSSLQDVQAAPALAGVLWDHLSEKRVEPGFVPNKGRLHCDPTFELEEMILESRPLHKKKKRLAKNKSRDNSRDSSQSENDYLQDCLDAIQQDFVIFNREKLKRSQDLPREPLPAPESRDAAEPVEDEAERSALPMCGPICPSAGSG

off-target kinases (Homo sapiens, UniProt O96017), sequence (O96017 whole entry): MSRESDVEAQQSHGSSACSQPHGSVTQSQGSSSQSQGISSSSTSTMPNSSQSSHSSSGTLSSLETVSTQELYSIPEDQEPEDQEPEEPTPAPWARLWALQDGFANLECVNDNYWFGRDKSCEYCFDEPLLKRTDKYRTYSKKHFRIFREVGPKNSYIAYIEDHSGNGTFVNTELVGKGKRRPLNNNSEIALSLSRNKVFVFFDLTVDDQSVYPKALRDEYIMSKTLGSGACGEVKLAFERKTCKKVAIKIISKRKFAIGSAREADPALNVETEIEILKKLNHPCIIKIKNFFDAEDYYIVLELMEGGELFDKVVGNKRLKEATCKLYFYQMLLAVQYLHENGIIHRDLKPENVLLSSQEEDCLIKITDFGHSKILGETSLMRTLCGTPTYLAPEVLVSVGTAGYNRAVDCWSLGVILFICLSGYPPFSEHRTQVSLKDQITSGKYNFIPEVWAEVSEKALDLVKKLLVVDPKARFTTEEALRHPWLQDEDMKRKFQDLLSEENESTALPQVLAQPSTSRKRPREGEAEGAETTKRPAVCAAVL
off-target kinases (Homo sapiens, UniProt P08581, D1228H), sequence (P08581 25-1390 D1228H): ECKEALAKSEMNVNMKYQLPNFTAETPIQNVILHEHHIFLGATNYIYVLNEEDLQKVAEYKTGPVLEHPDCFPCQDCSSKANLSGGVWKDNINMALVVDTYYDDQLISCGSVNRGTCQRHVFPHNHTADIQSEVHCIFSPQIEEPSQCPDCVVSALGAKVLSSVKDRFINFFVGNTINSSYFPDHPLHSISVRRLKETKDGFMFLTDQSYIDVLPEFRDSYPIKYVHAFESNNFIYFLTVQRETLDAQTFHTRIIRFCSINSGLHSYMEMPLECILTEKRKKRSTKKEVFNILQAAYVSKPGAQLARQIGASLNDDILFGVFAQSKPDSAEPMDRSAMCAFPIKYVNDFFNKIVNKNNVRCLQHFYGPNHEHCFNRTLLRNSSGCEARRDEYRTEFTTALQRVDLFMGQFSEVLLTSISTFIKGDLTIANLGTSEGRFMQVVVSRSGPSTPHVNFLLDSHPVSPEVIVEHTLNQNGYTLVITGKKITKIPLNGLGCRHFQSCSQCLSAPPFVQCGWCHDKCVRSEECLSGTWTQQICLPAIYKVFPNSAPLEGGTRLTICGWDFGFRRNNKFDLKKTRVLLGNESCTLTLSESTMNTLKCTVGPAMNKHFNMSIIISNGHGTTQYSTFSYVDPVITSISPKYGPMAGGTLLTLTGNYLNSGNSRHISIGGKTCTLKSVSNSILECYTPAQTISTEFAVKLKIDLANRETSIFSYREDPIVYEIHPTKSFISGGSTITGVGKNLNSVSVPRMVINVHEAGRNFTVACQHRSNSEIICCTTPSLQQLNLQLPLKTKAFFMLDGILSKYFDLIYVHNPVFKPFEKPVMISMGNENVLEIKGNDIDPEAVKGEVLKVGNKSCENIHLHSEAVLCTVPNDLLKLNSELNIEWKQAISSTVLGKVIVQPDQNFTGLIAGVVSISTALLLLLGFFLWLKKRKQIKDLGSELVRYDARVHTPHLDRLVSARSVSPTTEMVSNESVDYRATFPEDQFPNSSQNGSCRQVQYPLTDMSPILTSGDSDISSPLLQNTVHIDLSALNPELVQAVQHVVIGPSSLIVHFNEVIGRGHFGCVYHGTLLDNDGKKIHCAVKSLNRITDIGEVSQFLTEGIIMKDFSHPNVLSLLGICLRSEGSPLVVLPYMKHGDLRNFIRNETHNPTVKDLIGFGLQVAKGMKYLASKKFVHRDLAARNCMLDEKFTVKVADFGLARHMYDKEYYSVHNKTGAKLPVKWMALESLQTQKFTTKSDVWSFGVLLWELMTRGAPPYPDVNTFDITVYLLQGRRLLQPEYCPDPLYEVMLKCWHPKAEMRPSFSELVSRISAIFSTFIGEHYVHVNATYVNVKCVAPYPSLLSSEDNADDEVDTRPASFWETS
off-target kinases (Homo sapiens, UniProt Q07912), sequence (Q07912 whole entry): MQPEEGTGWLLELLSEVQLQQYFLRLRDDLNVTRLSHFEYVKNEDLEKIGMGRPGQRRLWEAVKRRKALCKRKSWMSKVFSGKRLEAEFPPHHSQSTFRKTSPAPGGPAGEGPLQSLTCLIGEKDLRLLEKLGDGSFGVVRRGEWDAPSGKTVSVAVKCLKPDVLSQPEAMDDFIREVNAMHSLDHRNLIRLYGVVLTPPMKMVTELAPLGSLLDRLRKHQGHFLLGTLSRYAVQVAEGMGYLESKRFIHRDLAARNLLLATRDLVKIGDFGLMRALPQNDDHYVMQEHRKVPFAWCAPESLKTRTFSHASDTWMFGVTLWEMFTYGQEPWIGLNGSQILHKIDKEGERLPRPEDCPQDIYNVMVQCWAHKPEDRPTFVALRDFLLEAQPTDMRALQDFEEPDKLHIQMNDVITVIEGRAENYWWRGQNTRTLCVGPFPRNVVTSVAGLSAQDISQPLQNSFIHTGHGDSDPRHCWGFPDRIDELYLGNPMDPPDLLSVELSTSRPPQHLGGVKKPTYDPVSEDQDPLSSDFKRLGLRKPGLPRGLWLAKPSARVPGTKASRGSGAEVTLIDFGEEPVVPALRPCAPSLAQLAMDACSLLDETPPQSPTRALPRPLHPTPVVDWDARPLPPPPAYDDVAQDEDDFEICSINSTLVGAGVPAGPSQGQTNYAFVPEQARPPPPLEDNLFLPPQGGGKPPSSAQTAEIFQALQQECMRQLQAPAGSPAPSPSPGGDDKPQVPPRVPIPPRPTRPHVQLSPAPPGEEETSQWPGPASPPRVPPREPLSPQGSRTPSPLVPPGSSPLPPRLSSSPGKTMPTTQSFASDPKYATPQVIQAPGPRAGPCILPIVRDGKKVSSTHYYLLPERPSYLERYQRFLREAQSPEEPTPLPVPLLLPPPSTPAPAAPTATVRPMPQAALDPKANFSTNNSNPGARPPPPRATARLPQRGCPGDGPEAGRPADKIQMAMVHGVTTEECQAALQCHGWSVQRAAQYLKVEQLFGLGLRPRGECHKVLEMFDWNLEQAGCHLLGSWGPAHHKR
off-target kinases (Homo sapiens, UniProt P09769), sequence (P09769 whole entry): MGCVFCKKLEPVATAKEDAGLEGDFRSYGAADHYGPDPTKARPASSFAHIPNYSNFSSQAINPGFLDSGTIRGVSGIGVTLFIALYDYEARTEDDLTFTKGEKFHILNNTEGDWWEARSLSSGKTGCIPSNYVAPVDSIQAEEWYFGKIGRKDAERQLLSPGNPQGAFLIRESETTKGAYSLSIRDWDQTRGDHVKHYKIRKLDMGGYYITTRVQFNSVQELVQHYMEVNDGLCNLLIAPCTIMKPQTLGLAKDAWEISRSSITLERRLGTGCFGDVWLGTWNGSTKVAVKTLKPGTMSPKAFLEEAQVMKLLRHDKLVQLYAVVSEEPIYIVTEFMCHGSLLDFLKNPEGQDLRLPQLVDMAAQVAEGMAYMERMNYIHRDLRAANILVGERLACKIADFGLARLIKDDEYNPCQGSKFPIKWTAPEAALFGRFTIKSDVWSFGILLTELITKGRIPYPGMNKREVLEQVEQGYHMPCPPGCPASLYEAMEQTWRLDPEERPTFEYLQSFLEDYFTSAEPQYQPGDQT
off-target kinases (Homo sapiens, UniProt P19525), sequence (P19525 whole entry): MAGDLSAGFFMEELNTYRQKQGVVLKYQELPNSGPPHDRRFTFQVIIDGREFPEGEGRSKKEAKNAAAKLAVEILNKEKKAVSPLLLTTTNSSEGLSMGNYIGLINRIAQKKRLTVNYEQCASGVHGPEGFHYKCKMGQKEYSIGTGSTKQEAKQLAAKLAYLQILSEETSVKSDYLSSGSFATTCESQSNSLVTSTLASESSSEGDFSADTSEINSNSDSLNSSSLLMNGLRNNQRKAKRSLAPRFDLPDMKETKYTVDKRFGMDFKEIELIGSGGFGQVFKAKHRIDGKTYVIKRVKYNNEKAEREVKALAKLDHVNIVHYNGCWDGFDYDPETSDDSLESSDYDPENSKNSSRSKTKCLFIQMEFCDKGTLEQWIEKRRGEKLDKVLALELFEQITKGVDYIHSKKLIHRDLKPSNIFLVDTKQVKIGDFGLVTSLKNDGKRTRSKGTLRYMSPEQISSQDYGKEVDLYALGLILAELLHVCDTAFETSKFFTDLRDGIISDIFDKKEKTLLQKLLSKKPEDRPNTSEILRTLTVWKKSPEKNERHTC

**Q.** What does the source list for `N#Cc1cc(-c2ncnc(Nc3ccc(N4CCN(C5COC5)CC4)cc3)n2)ccc1OC1CCOCC1` [Compound 1, 5-(4-((4-(4-(oxetan-3-yl)piperazin-1-yl)phenyl)amino)-1,3,5-triazin-2-yl)-2-((tetrahydro-2H-pyran-4-yl)oxy)benzonitrile]?
**A.** inhibition (off-target kinases [1]; read-out: % Inhibition 1): 27%; inhibition (off-target kinases [1]; read-out: % Inhibition 2): 27%; inhibition (off-target kinases [1]; read-out: % Inhibition Avg): 27%; inhibition (off-target kinases [2]; read-out: % Inhibition 1): 46%; inhibition (off-target kinases [2]; read-out: % Inhibition 2): 48%; inhibition (off-target kinases [2]; read-out: % Inhibition Avg): 47%; inhibition (off-target kinases [3]; read-out: % Inhibition 1): 53%; inhibition (off-target kinases [3]; read-out: % Inhibition 2): 53%; inhibition (off-target kinases [3]; read-out: % Inhibition Avg): 53%; inhibition (off-target kinases [4]; read-out: % Inhibition 1): 90%; inhibition (off-target kinases [4]; read-out: % Inhibition 2): 89%; inhibition (off-target kinases [4]; read-out: % Inhibition Avg): 89%; inhibition (off-target kinases [5]; read-out: % Inhibition 1): 42%; inhibition (off-target kinases [5]; read-out: % Inhibition 2): 43%; inhibition (off-target kinases [5]; read-out: % Inhibition Avg): 43%; inhibition (off-target kinases [6]; read-out: % Inhibition 1): 25%; inhibition (off-target kinases [6]; read-out: % Inhibition 2): 26%; inhibition (off-target kinases [6]; read-out: % Inhibition Avg): 25%; inhibition (off-target kinases [7]; read-out: % Inhibition 1): 0%; inhibition (off-target kinases [7]; read-out: % Inhibition 2): 1%; inhibition (off-target kinases [7]; read-out: % Inhibition Avg): 0%; inhibition (off-target kinases [8]; STK32C (YANK3), LanthaScreen Binding, read-out: % Inhibition 1): -4%; inhibition (off-target kinases [8]; STK32C (YANK3), LanthaScreen Binding, read-out: % Inhibition 2): 3%; inhibition (off-target kinases [8]; read-out: % Inhibition Avg): -1%
